Molecular target: T1, TsPrx1 (Taenia solium, UniProt Q2TP88)
T1 construct: recombinant, pET-23a(+) NdeI/XhoI, E. coli BL21 Codon Plus, His tag (printed as amino terminal), 195 residues, ~22 kDa
Test: NADPH oxidation at […] nm, coupled assay with TsTrx and TcTGR
Format: biochemical
Details: 150 μM NADPH, 60 μM TsTrx, 11.2 nM TcTGR, 1.25 μM TsPrx1, pH 7.8, 25 °C

T1 sequence (Q2TP88 entry or part of it): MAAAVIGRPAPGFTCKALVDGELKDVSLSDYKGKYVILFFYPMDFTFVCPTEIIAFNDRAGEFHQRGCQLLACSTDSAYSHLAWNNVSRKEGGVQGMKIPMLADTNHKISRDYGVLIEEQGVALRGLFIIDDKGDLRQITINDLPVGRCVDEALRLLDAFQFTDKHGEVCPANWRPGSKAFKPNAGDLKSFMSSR

With `CC(C)(C)OO` [t-butyl hydroperoxide] the Km was 18.1 µM.
